Results reported in patent EP4656640A1, “IRAK4 DEGRADER AND USE THEREOF” (Shanghai Qilu Pharmaceutical Research and Development …, priority 2023, dated 2024).
Where two headings read alike, the source gives them in different places.

How the values were obtained:
TNFα secretion = test: Inhibition of induced TNFα secretion in human PBMCs (CBA); format: cell-based; details: PBMC
Procedure: The effect of PROTAC small molecules on inflammatory factors in PBMCs downstream of IRAK4 induced by TLR and IL-1 was detected based on the CBA (cytometric bead array) method.
Step 2: The density of PBMCs was adjusted to 1 E6/mL, and 150 µL of PBMCs in 1640 complete medium were seeded into a 96-well plate, followed by incubation at 37°C for 1 hour.
Step 3: 50 µL of serially diluted small molecule (working concentration: 10000 nM, 1:3 dilution) drugs were inoculated into the plate in a 37°C incubator for 8 hours.
Step 4: 10 µL of stimulants were added respectively, with final concentrations of 100 ng/mL for LPS, 1 µg/mL for R848, and 100 ng/mL for IL-1β.
Step 5: CBA assay. The concentrations of IL-6 and TNF-α in the cell culture supernatant were determined using Hu IL-6 CBA Flex Set A7 and Hu TNF- CBA Flex Set D9.
Step 6: Standard samples were prepared: 2500 pg/mL, 1250 pg/mL,...0. A 1:2 serial dilution was performed to obtain 10 concentrations.
Step 7: The mixed capture beads were resuspended in capture bead diluent (1:50), and cell culture supernatant (50 µL) was added, followed by incubation at room temperature for 10 minutes.
Step 8: The detection reagent prepared with detection diluent was added, and the mixture was incubated in the dark at room temperature for 3 hours. At the end of incubation, the samples were washed once with wash buffer and resuspended for detection.
The concentrations of IL-6 and TNFα were calculated using the standard curve method. Data presentation and IC50 calculation were performed using Prism 8.0.2.

[1] = Dog pharmacokinetics, oral gavage (Experiment 3); format: in vivo; details: Beagle dogs, oral gavage 2.5 mg/kg, plasma
Procedure: Healthy Beagle dogs, male, weighing about 8-10 kg, 3 animals per group.
The animals were not fasted and had free access to water.
Venous blood (0.5-0.8 mL) was collected at 15 minutes, 30 minutes, 1 hour, 2 hours, 4 hours, 8 hours, and 24 hours after oral gavage administration, placed in K2EDTA tubes, and centrifuged at 4°C to separate plasma. The concentration of the compound in plasma was determined by liquid chromatography-tandem mass spectrometry.
The main pharmacokinetic parameters were calculated using WinNonlin. […] Table 8. Pharmacokinetic parameters of some compounds of the present disclosure administered orally to dogs

hERG potassium channel = hERG potassium channel (Homo sapiens, UniProt Q12809); test: Inhibition of hERG potassium channel, whole-cell manual patch clamp in CHO-hERG cells; details: @ 1 µM test compound
Procedure: The effects of compounds on hERG potassium channel (human Ether-a-go-go Related Gene potassium channel) currents were tested using the whole-cell manual voltage-clamp electrophysiological method.
CHO cells stably expressing hERG were cultured in cell culture dishes with a diameter of 35 mm and incubated at 37°C in a 5% CO2 incubator. The cells were passaged at a ratio of 1:5 every 48 hours. The culture medium was formulated as follows: 90% F12 (Invitrogen), 10% fetal bovine serum (Gibco), 100 g/mL G418 (Invitrogen), and 100 g/mL Hygromycin B (Invitrogen). On the day of the experiment, the cell culture medium was aspirated, and the cells were rinsed once with extracellular solution. […] The digestion solution was aspirated, and the cells were resuspended in extracellular solution and then transferred to experimental dishes for electrophysiological recording for later use.
On the day of testing, the compounds were prepared as 10 mM stock solutions in DMSO, then diluted to 1 mM with DMSO, and further diluted 1000-fold with extracellular solution to obtain the desired final test concentration.
hERG potassium channel currents were recorded at room temperature using the whole-cell patch-clamp technique in CHO cells stably expressing the hERG channel. The glass microelectrode was prepared by pulling the glass electrode blank (BF150-86-10, Sutter) with a puller, and the tip resistance after filling with the internal electrode solution was about 2-5 MΩ. The glass microelectrode was inserted into the amplifier probe and then connected to the patch-clamp amplifier. The clamping voltage and data recording were controlled and recorded by pClamp software via a computer, with a sampling frequency of 10 kHz and a filtering frequency of 2 kHz. After obtaining the whole-cell recording, cells were clamped at -100 mV. The hERG potassium current (IhERG) was evoked by applying a 2 s depolarizing voltage step from -100 mV to +20 mV, followed by repolarization to -50 mV for 1 s before returning to -100 mV. […]
Data were analyzed and processed using pClamp, GraphPad Prism 8 and Excel software. […]

IRAK4 = molecular target: T1, IRAK4 (Homo sapiens, UniProt Q9NWZ3); test: Degradation of IRAK4 in SU-DHL-2 cells (flow cytometry); format: cell-based; parameters: The degradation level of IRAK4 protein in SU-DHL-2 cell line by the compounds was detected by flow cytometry; endogenous in cells; host or cells: SU-DHL-2; OCI-LY3; details: SU-DHL-2 cells, 24 hours incubation; read-out: SU-DHL-2 DC50
T1 sequence (Q9NWZ3 1-460): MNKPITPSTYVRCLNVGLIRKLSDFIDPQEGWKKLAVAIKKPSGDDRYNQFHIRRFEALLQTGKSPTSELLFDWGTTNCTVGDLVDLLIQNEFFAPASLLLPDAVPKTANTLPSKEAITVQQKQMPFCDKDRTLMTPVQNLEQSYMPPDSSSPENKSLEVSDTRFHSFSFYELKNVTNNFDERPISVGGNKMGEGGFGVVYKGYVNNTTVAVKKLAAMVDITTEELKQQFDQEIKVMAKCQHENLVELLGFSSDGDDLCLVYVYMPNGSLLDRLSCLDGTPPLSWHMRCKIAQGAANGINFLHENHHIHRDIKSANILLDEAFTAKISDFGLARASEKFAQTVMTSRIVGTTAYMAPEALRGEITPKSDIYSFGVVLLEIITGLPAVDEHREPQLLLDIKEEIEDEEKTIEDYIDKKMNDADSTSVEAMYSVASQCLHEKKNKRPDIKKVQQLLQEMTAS

[2] = IL-1β 100 ng/mL, read-out: IC50, TNFα secretion induced by IL-1β
[3] = LPS 100 ng/mL, read-out: IC50, TNFα secretion induced by LPS
[4] = R848 1 µg/mL, read-out: IC50, TNFα secretion induced by R848

Chain of hERG potassium channel (Q12809 whole entry): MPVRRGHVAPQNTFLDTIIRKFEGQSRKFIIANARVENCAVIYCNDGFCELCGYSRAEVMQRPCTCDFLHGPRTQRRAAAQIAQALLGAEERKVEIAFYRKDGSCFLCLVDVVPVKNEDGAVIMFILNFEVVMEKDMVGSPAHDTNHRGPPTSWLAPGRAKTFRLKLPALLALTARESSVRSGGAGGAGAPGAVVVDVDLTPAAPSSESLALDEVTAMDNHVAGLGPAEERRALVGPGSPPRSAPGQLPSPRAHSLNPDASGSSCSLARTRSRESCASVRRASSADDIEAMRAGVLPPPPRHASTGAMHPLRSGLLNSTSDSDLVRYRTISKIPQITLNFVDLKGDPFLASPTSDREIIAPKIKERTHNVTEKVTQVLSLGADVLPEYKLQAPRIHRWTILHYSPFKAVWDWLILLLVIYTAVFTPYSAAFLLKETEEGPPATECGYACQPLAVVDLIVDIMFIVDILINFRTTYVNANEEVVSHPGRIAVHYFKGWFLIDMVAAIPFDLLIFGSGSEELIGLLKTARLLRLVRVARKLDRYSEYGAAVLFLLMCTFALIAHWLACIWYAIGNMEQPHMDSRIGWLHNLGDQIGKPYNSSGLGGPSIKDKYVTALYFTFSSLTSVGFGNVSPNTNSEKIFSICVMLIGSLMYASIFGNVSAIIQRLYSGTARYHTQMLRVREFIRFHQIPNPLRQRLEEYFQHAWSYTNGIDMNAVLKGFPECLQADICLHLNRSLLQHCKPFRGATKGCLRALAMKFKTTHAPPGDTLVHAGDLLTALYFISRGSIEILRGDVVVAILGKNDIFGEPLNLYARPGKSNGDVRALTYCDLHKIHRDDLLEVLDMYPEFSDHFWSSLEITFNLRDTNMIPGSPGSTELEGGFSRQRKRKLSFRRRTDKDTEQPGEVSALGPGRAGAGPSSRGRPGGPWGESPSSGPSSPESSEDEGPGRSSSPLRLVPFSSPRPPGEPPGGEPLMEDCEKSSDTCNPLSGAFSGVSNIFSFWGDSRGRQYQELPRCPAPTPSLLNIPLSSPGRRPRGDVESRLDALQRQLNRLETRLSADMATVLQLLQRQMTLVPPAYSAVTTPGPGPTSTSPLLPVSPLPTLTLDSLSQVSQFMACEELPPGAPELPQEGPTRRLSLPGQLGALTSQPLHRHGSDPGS

## Cn1c(=O)n(C2CCC(=O)NC2=O)c2cccc(C#CCOC34CCC(CN5CCC6(CC5)CC(n5cc(NC(=O)c7cnn8ccc(N9C[C@H]%10C[C@@H]9CO%10)nc78)c(C(F)F)n5)C6)(CC3)CC4)c21 (stereo partly drawn) [Example 52]
TNFα secretion; [2]
  IC50: 13.9 nM
TNFα secretion; [3]
  IC50: 8.5 nM
TNFα secretion; [4]
  IC50: 21.5 nM
[1]
  AUC(0-t) at 24 h: 1160 ng·h/mL
  Cmax: 78 ng/mL
  MRT inf: 20.2 h
  half-life: 13.4 h
hERG potassium channel
  hERG (inhibition%): 16% @ 1 µM
IRAK4
  DC50: 3 nM

## Cn1c(=O)n(C2CCC(=O)NC2=O)c2cccc(C#CCCN3CCC4(CC3)CC(n3cc(NC(=O)c5cnn6ccc(N7C[C@H]8C[C@@H]7CO8)nc56)c(C(F)F)n3)C4)c21 (stereo partly drawn) [Example 22]
TNFα secretion; [2]
  IC50: 0.16 nM
TNFα secretion; [3]
  IC50: 1.2 nM
TNFα secretion; [4]
  IC50: 1.4 nM
[1]
  AUC(0-t) at 24 h: 1190 ng·h/mL
  Cmax: 100 ng/mL
  MRT inf: 11.2 h
  half-life: 7.6 h
hERG potassium channel
  hERG (inhibition%): 36% @ 1 µM
IRAK4
  DC50: 1.4 nM
